Laboratory results from the supplement of paper PMC11208160.

Test: recombinant barcode read abundance after kanamycin selection (control-corrected) (log10(CPM+1)); higher = more efficient recombination; sequences stand for … in AGTGCAGAGAAAATCGGCCAGTTTTCTCTGCCTGCAGTCCGCATGCCGT…AGATTTATGCAGCGGACTGCCTTTCTCCCAAAGTGATAAACCGGACAGTATCATGGACCGGTTTTCCCGGTAATCCGTATTTGCAAGGTTGGTTTCACT; site = the 11-nt target
Method in brief: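 Targets and IS621 bridge RNA target-binding loops were paired in oligos, each with a promoter, a barcode and the J23119-driven first 104 bridge RNA bases. A vector carrying the remaining 73 bp and a T7-inducible recombinase received these by Gibson cloning, and the pool was co-electroporated into E. coli with a donor plasmid. Duplicate plates contained chloramphenicol/ampicillin LB agar (control) or chloramphenicol/ampicillin/kanamycin with 0.1 mM IPTG. Recombination efficiency comes from averaged, control-corrected counts per million of recombinant-junction barcodes, reported as log10(CPM+1).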
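Further: IS621 recombinase and bridge RNA in Escherichia coli cells.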

Sequence	recombinant barcode read abundance (log10)
CCTGGAACTTGGGTTCTAACCTGTTGCTT (site CCTGGAGCTAT)	0.333
CCTGGACCTTGGGTTCTAACCTGTTGCGT (site CCTGGACCTAC)	2.06
CCTGGACCTTGGGTTCTAACCTGTTGCGT (site CCTGGGCCTAA)	0.0265
CCTGGAGCTTGGGTTCTAACCTGTTGCAT (site CCTGGAACTAA)	0.266
CCTGGAGCTTGGGTTCTAACCTGTTGCAT (site CCTGGAGCTAT)	0.654
CCTGGCACTTGGGTTCTAACCTGTTGCAG (site CCTGAGACTCT)	0
CCTGGCACTTGGGTTCTAACCTGTTGCAG (site CCTGGCACTCT)	1.96
CCTGGGACTTGGGTTCTAACCTGTTGCTA (site ATGATACCTAT)	0.186
CCTGGGACTTGGGTTCTAACCTGTTGCTA (site CCTGGGACTTA)	2.03
CCTGGTCCTTGGGTTCTAACCTGTTGCAT (site CCTGGACCTAA)	0.195
CCTGGTCCTTGGGTTCTAACCTGTTGCAT (site CCTGGTCCTAT)	1.42
CCTTAGTCTTGGGTTCTAACCTGTTGCAG (site ACATAGTCTCT)	0.169
CCTTAGTCTTGGGTTCTAACCTGTTGCAG (site CCTTAGTCTCT)	1.15
CCTTCCACTTGGGTTCTAACCTGTTGCCT (site ACTTCCACTAG)	0.00909
CCTTCCACTTGGGTTCTAACCTGTTGCCT (site CCTTCCACTAG)	0.285
CCTTCCACTTGGGTTCTAACCTGTTGCCT (site GCTTCCACTAG)	0.0418
CCTTCCACTTGGGTTCTAACCTGTTGCCT (site TCTTCCACTAG)	0.0607
CCTTCCTCTTGGGTTCTAACCTGTTGCCT (site CATTCCTCTAG)	0.018
CCTTCCTCTTGGGTTCTAACCTGTTGCCT (site CCTTCCTCTAG)	0.599
CCTTCCTCTTGGGTTCTAACCTGTTGCCT (site CGTTCCTCTAG)	0.0856

Sequence	recombinant barcode read abundance (log10)
CCTTCCTCTTGGGTTCTAACCTGTTGCCT (site CTTTCCTCTAG)	0
CCTTGGACTTGGGTTCTAACCTGTTGCCT (site CCTTGCTCTAG)	0.084
CCTTGGACTTGGGTTCTAACCTGTTGCCT (site CCTTGGACTAG)	0.427
CCTTTGTCTTGGGTTCTAACCTGTTGCTT (site CCTTTGACTAA)	0.155
CCTTTGTCTTGGGTTCTAACCTGTTGCTT (site CCTTTGTCTAA)	0.243
CGAAAATCTTGGGTTCTAACCTGTTGCCT (site CGAAAATCTAG)	0.0664
CGAAAATCTTGGGTTCTAACCTGTTGCCT (site CGCAAATCTAG)	1.33
CGAAAATCTTGGGTTCTAACCTGTTGCCT (site CGGAAATCTAG)	0.18
CGAAAATCTTGGGTTCTAACCTGTTGCCT (site CGTAAATCTAG)	0.128
CGAAGCTCTTGGGTTCTAACCTGTTGCCT (site CGAAGCTCTAG)	1.44
CGAAGCTCTTGGGTTCTAACCTGTTGCCT (site CGCAGCTCTAG)	0.211
CGAAGCTCTTGGGTTCTAACCTGTTGCCT (site CGGAGCTCTAG)	0.108
CGAAGCTCTTGGGTTCTAACCTGTTGCCT (site CGTAGCTCTAG)	0.223
CGAATCCCTTGGGTTCTAACCTGTTGCCT (site CGAATCACTAG)	0.107
CGAATCCCTTGGGTTCTAACCTGTTGCCT (site CGAATCCCTAG)	0.809
CGAATCCCTTGGGTTCTAACCTGTTGCCT (site CGAATCGCTAG)	0.0332
CGAATCCCTTGGGTTCTAACCTGTTGCCT (site CGAATCTCTAG)	0.117
CGACATCCTTGGGTTCTAACCTGTTGCCT (site CGACATCCTAG)	0.214
CGACATCCTTGGGTTCTAACCTGTTGCCT (site CGAGATCCTAG)	0.409
CGACCGACTTGGGTTCTAACCTGTTGCAG (site CGACCGACTCT)	0.42

Sequence	recombinant barcode read abundance (log10)
CGACCGACTTGGGTTCTAACCTGTTGCAG (site CGATCGACTCT)	0.158
CGACGTACTTGGGTTCTAACCTGTTGCCT (site CGACGTACTAG)	0.151
CGACGTACTTGGGTTCTAACCTGTTGCCT (site CGCCGTACTAG)	0.226
CGACGTACTTGGGTTCTAACCTGTTGCCT (site CGGCGTACTAG)	0.0649
CGACGTACTTGGGTTCTAACCTGTTGCCT (site CGTCGTACTAG)	0
CGACTGACTTGGGTTCTAACCTGTTGCCT (site CGACTGACTAG)	0.229
CGACTGACTTGGGTTCTAACCTGTTGCCT (site CGTCTGACTTG)	0.0517
CGACTGCCTTGGGTTCTAACCTGTTGCGT (site CGAATGTCTAC)	0.527
CGACTGCCTTGGGTTCTAACCTGTTGCGT (site CGACTGCCTAC)	2.09
CGAGCAGCTTGGGTTCTAACCTGTTGCCT (site CGAGCAGCTAG)	0.395
CGAGCAGCTTGGGTTCTAACCTGTTGCCT (site CGCGCAGCTAG)	0.152
CGAGCAGCTTGGGTTCTAACCTGTTGCCT (site CGGGCAGCTAG)	0.519
CGAGCAGCTTGGGTTCTAACCTGTTGCCT (site CGTGCAGCTAG)	0.0197
CGAGGGTCTTGGGTTCTAACCTGTTGCCT (site CGAGGGACTAG)	0.0535
CGAGGGTCTTGGGTTCTAACCTGTTGCCT (site CGAGGGCCTAG)	0.279
CGAGGGTCTTGGGTTCTAACCTGTTGCCT (site CGAGGGGCTAG)	0.0907
CGAGGGTCTTGGGTTCTAACCTGTTGCCT (site CGAGGGTCTAG)	1.87
CGAGGGTCTTGGGTTCTAACCTGTTGCTT (site AGAGGGTCTAA)	0.172
CGAGGGTCTTGGGTTCTAACCTGTTGCTT (site CGAGGGTCTAA)	1.82
